Laboratory results published in ChEMBL document CHEMBL1149947, “Identification and chemical synthesis of MDL 105,212, a non-peptide tachykinin antagonist with high affinity for NK1 and NK2 receptors” (Bioorg Med Chem Lett, 1996).

Assays:
Substance-P receptor = Substance-P receptor (Homo sapiens, UniProt P25103); test: Binding affinity against Neurokinin 1(NK1) receptor from human IM-9 cells using [I]-Bolton Hunter labeled SP; assay type: cell-based
Substance-K receptor = molecular target: T1, Substance-K receptor (Homo sapiens, UniProt P21452); test: Binding affinity against human NK2 receptors from HSKR-1 cells using [125I]-Iodohistidyl NKA; assay type: cell-based
T1 sequence (P21452 whole entry): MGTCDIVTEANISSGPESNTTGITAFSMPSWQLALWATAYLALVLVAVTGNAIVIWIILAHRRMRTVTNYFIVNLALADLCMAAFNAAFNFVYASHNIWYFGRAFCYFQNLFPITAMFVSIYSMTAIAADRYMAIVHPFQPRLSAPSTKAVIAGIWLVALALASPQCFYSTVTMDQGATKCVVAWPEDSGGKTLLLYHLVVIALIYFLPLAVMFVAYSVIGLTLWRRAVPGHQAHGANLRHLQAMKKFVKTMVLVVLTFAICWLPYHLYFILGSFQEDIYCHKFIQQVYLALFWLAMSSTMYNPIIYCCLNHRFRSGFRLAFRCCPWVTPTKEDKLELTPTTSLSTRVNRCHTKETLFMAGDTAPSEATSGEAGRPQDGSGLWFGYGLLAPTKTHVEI

Neuromedin-K receptor = molecular target: T2, Neuromedin-K receptor (Cavia porcellus, UniProt P30098); test: NK3 IC50 determined using [125I]bolton Hunter labeled eledoisin at NK3 receptors from guinea pig cerebral cortex; assay type: tissue-based
T2 sequence (P30098 whole entry): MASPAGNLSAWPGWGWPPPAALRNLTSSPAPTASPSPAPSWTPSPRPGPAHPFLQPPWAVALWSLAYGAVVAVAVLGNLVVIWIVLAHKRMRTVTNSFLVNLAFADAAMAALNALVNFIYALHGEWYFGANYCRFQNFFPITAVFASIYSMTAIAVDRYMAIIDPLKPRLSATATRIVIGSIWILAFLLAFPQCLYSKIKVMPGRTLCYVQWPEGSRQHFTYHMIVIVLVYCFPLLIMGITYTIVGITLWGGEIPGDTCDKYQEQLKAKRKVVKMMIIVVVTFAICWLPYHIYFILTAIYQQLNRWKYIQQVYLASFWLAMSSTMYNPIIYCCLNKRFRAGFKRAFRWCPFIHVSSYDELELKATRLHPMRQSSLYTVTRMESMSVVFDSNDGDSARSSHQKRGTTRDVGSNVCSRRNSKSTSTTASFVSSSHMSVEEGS

Substance-P receptor, sequence (P25103 whole entry): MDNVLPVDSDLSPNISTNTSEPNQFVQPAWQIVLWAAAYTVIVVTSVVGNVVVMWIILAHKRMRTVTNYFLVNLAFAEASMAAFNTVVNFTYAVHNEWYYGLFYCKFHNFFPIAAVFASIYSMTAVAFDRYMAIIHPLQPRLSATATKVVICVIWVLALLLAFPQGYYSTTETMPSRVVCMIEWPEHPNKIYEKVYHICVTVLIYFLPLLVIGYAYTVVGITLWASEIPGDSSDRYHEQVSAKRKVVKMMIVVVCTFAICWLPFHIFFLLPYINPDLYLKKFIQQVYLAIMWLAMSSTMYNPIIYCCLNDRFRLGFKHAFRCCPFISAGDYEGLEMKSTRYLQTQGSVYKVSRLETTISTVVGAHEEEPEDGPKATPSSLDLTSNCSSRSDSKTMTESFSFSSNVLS

Structure (SMILES) | IC50 (Substance-P receptor) [nM] | IC50 (Substance-K receptor) [nM] | IC50 (Neuromedin-K receptor) [nM]
COc1ccccc1CC(=O)N1CCC(CCN2CCC(C(N)=O)(c3ccccc3)CC2)(c2ccc(Cl)c(Cl)c2)C1 (configuration not stated) | 48.2 | – | –
CC(C)Oc1cccc(CC(=O)N2CCC(CCN3CCC(C(N)=O)(c4ccccc4)CC3)(c3ccc(Cl)c(Cl)c3)C2)c1 (configuration not stated) | 138 | 548 | –
COc1cccc(C(=O)N2CCC(CCN3CCC(C(N)=O)(c4ccccc4)CC3)(c3ccc(Cl)c(Cl)c3)C2)c1 (configuration not stated) | 107 | 12 | –
COc1ccccc1C(=O)N1CCC(CCN2CCC(C(N)=O)(c3ccccc3)CC2)(c2ccc(Cl)c(Cl)c2)C1 (configuration not stated) | 73.6 | 16.7 | –
COc1c(C)cc(C(=O)N2CCC(CCN3CCC(C(N)=O)(c4ccccc4)CC3)(c3ccc(Cl)c(Cl)c3)C2)cc1C (configuration not stated) | 168 | 6.94 | –
CC(=O)NC1(c2ccccc2)CCN(CC[C@H](CN(C)C(=O)c2ccccc2)c2ccc(Cl)c(Cl)c2)CC1 [SAREDUTANT] | 593 | 0.44 | 208
CCOC(=O)Oc1c(OC)cc(C(=O)N2CCC(CCN3CCC(C(N)=O)(c4ccccc4)CC3)(c3ccc(Cl)c(Cl)c3)C2)cc1OC (configuration not stated) | 252 | 96.3 | –
COc1cc(CC(=O)N2CCC(CCN3CCC(C(N)=O)(c4ccccc4)CC3)(c3ccc(Cl)c(Cl)c3)C2)cc(OC)c1OC (configuration not stated) | 66.2 | 55.5 | –
COc1cc(OC)cc(C(=O)N2CCC(CCN3CCC(C(N)=O)(c4ccccc4)CC3)(c3ccc(Cl)c(Cl)c3)C2)c1 (configuration not stated) | 69.9 | 19.1 | –
COc1ccc(C(=O)N2CCC(CCN3CCC(C(N)=O)(c4ccccc4)CC3)(c3ccc(Cl)c(Cl)c3)C2)c(OC)c1 (configuration not stated) | 127 | – | –
COc1cc(C(=O)N2CC[C@](CCN3CCC(C(N)=O)(c4ccccc4)CC3)(c3ccc(Cl)c(Cl)c3)C2)cc(OC)c1OC | 3.11 | 8.4 | 21
COc1cc(C(=O)N2CCC(CCN3CCC(C(N)=O)(c4ccccc4)CC3)(c3ccc(Cl)c(Cl)c3)C2)cc(OC)c1C (configuration not stated) | 64.1 | 13.4 | –
COc1ccc(C(=O)N2CCC(CCN3CCC(C(N)=O)(c4ccccc4)CC3)(c3ccc(Cl)c(Cl)c3)C2)cc1 (configuration not stated) | 634 | 11.8 | –
COc1ccccc1CN[C@H]1C2CCN(CC2)[C@H]1C(c1ccccc1)c1ccccc1 [CP-96345] | – | > 10000 | > 10000
COc1cc(C(=O)N2CCC(CCN3CCC(C(N)=O)(c4ccccc4)CC3)(c3ccc(Cl)c(Cl)c3)C2)cc(OC)c1OC(C)C (configuration not stated) | 65.9 | 42.4 | –
COc1cccc(OC)c1C(=O)N1CCC(CCN2CCC(C(N)=O)(c3ccccc3)CC2)(c2ccc(Cl)c(Cl)c2)C1 (configuration not stated) | 22.8 | 53.2 | –
COc1cc(C(=O)N2CCC(CCN3CCC(C(N)=O)(c4ccccc4)CC3)(c3ccc(Cl)c(Cl)c3)C2)cc(OC)c1OC (configuration not stated) | 6.19 | 18.8 | –
NC(=O)C1(c2ccccc2)CCN(CCC2(c3ccc(Cl)c(Cl)c3)CCN(C(=O)c3ccccc3)C2)CC1 (configuration not stated) | 271 | – | –
COc1c(Br)cc(C(=O)N2CCC(CCN3CCC(C(N)=O)(c4ccccc4)CC3)(c3ccc(Cl)c(Cl)c3)C2)cc1Br (configuration not stated) | 313 | 4.04 | –
